Here are results for one compound from patent publication US11980648B2, “Compositions including ginsenoside 20(S)-Rg3 and methods of using ginsenoside 20(S)-Rg3 to inhibit alpha herpesvirus” (MIDDLE TENNESSEE STATE UNIVERSITY, priority 2020, dated 2024).

Marks after values point to notes of the source that are not given here.

Data set [1] concerns HSV-1. Kind of data set: Mouse susceptibility study, lethal HSV-1 infection. It is filed as in vivo, BALB/c mice. The conditions noted are these: for mortality: BALB/c mice, lethal dose HSV-1. On the procedure: Mouse Susceptibility Study. BALB/c mice and the HSV-1, MacIntyre strain, ATCC VR-539, were used to determine the effectiveness of the 20(S)-Rg3 ginsenoside in preventing mortality in mice caused by infection of HSV-1. On day 1 of the study, four groups consisting of four mice each were injected intraperitoneally with 800,000 PFU of HSV-1, MacIntyre strain, ATCC VR-539. Three of the groups were treated daily with 1 mg/kg, 3 mg/kg, or 10 mg/kg intraperitoneal injections of the 20(S)-Rg3 ginsenoside and one group in the study received no treatment.

For data set [2], the system named is HSV-1. Kind of data set: Virus inhibition, HSV-1 on Vero cells (PrestoBlue). It is filed as cell-based, herpes simplex virus type 1 (MacIntyre strain). Here is the method: (§1) Viruses and Quantification. Herpes simplex virus type 1 (HSV-1, MacIntyre strain, ATCC, VR-539) or herpes simplex virus type 2 (HSV-2, ATCC, VR-734) were used in these studies. Virus titer was determined by plaque assay. Briefly, following 2 hour-adsorption of various virus dilutions onto a Vero cell monolayer in a 24-well plate, the medium was removed and cells were overlaid with 1.5% carboxymethylcellulose (Sigma Chemical Company, St. Louis, Mo.) and incubated 48 hours at 37° C. with 5% CO2. After incubation, cells were fixed with methanol, stained with Giemsa (Sigma Chemical Company, St. Louis, Mo.) and plaques were counted. Each virus dilution was prepared in quadruplicate.
(§2) Cytotoxicity and Virus Inhibition. All ginsenosides, isomers, and protopanaxadiols were evaluated for toxic effects on Vero cells prior to anti-viral testing. Cells were seeded at 5000 cells/well in a black 96-well plate with clear bottom in a volume of 100 μL and allowed to attach for 24 hours. The P. ginseng compounds were prepared in DMSO at 100 μM and were taken through serial two-fold dilutions to determine the concentration when the rate of cell death was less than 10% compared to control, untreated cells. Each dilution was tested in three wells and all assays were repeated three times. Following a 48 hour-incubation at 37° C. in 5% CO2, 11 μL of PrestoBlue (Invitrogen, Carlsbad, Calif.) was added to each well and the plate was incubated for an additional 30 minutes. PrestoBlue determines cell viability by changing from blue to red as resazurin is reduced to resorufin by viable cells. Following the PrestoBlue incubation, fluorescence was determined by spectrophotometric reading using Soft Max Pro (Molecular Diagnostics, San Jose, Calif., USA).
(§3) For cytotoxicity testing, 4 μL of dilutions of the ginsenosides or protopanaxadiols were added to 396 μL of medium 199 and 100 μL of this mixture was added to each of three wells. For anti-viral testing, 4 μL of the non-toxic reagent and 4 μL of HSV-1 or HSV-2 diluted to an MOI of 0.1 were added to 392 μL of medium 199 and 100 μL of this mixture was added to each of three wells. Virus inhibition was determined by comparing the cell death of reagent-exposed cells with cell death of control cells only receiving virus. The 50% inhibitory concentration (IC50) was determined through a series of two-fold dilutions and calculation by linear regression analysis.

The next data set has as its system Vero cells. Kind of data set: Cytotoxicity on Vero cells (PrestoBlue). It is filed as cell-based. The conditions noted are these: for Percent Cell Death: African green monkey, 48 h. On the procedure:
Cells. Vero cells (American Type Culture Collection (ATCC), Manassas, VA, CCL-81) were maintained in medium 199 (Sigma Chemical Company, St. Louis, MO) that was supplemented with 8% fetal bovine serum (Invitrogen, Carlsbad, CA), 1.25 μg/mL fungizone (Invitrogen, Carlsbad, CA) and penicillin-streptomycin, 1000 U/mL and 1 mg/mL respectively (Sigma Chemical Company, St. Louis, MO). Cells were passed weekly using 0.1% trypsin (Sigma Chemical Company, St. Louis, MO) to detach the cells from the flasks. Cell quantification was done by trypan blue exclusion.
as §2, with “The P. ginseng compounds were prepared in DMSO at 100 μM and were taken through serial two-fold dilutions to determine the concentration when the rate of cell death was less than 10% compared to control, untreated cells.” left out
as §3

Another data set deals with normal WI 38 cells. The settings on record: 120 μM; cited from earlier work.
In data set [3] the test system is HSV-1. Kind of data set: Time studies of HSV-1 inhibition (PrestoBlue). The settings on record: Rg3 50 μM. It is filed as cell-based, herpes simplex virus type 1. Here is the method:
Time Studies. For virus inhibition studies described above, reagent 20(S)-Rg3 and virus were added to cells simultaneously. To evaluate the potential mode of action of Rg3, various combinations of valacyclovir, Rg3 and HSV-1 were tested at different time periods. The following combinations were evaluated at both one hour and four hours: • Virus applied to cells first (for one hour or four hours), followed by addition of valacyclovir, Rg3 or both valacyclovir and Rg3 to the cells; • Valacyclovir or Rg3 or both valacyclovir and Rg3 applied to cells first (for one or four hours), followed by virus; • Valacyclovir or Rg3 incubated together with virus first for one or four hours then added to cells.
All procedures described for evaluation of virus inhibition were followed in identical fashion as outlined for the PrestoBlue procedure except valacyclovir was used at a constant concentration of 16 μM and 20(S)-Rg3 at 50 μM.

The test system of data set [4] is HSV-1. Nature of the data set: Plaque reduction of HSV-1 on Vero cell monolayer. It is filed as cell-based, herpes simplex virus type 1 (MacIntyre strain). The settings on record: valacyclovir 16 μM, 20(S)-Rg3 50 μM, about 50 PFU/well, 48 hours; for Number of Plaques: ± standard error. On the procedure: as §1
The plaque assay procedure also was used to evaluate the percent plaque reduction; the only procedural change was that a constant virus concentration was used (50 plaque forming units (PFU)/well). Plaque reduction was measured by comparing the control (virus only), with valacyclovir (16 μM) with virus or 20(S)-Rg3 (50 μM) with virus. Sample wells were evaluated in quadruplicate. Following the 2 hour-virus adsorption, the methylcellulose-medium containing the same concentrations of valacyclovir or Rg3 was added to the appropriate wells. After 48 hours, plaques were fixed, stained and counted.

Broadly, the mortality is the share of the test organisms that died. A high value points to a strong lethal effect. As usually defined, the inhibition is the percentage by which the read-out fell short of the control. The term IC50 denotes the midpoint of a concentration-inhibition curve.

As for `CC(C)=CCC[C@](C)(O)C1CC[C@]2(C)C1[C@H](O)CC1[C@@]3(C)CC[C@H](O[C@@H]4OC(CO)[C@@H](O)[C@@H](O)C4O[C@@H]4OC(CO)[C@@H](O)[C@@H](O)C4O)C(C)(C)C3CC[C@]12C` (stereo partly drawn) [20(S)-Rg3, 20(S)-ginsenoside-Rg3], the mortality in the data set with HSV-1 [1] (1 mg/kg daily intraperitoneal), with HSV-1 [1] (3 mg/kg daily intraperitoneal) and in the data set with HSV-1 [1] (10 mg/kg daily intraperitoneal) was 0% each time. The signs of stress result in the data set on HSV-1 [1] (daily 1 mg/kg, 3 mg/kg or 10 mg/kg groups, duration of the study) is “never showed any signs of stress”. In addition, the “Percent Inhibition of HSV-1” value is 82.3 ± 3.5% in the data set on HSV-1 [2] (50 μM, ± standard error); “nearly completely inhibited” in the data set with HSV-1 [2] (100 μM, ± standard error); “over 110%” with HSV-1 [3] (HSV-1 incubated with compound(s) 4 hours prior to addition to cells, valacyclovir 16 μM); 113.7±14.8% with HSV-1 [3] (HSV-1 incubated with compound(s) 4 hours prior to addition to cells, valacyclovir 16 μM, listed as Rg3); 90.1±11.1% with HSV-1 [3] (cells pretreated with compound 4 hours prior to HSV-1 addition); 50.7±4.4% with HSV-1 [3] (virus present on cells 4 hours prior to compound addition). In addition, the inhibition at 25 µM in the data set on HSV-1 [2] (Human alphaherpesvirus 1, Vero, 25 μM, ± standard error, read-out: Percent Inhibition of HSV-1) came out at 11 ± 2.6%. The inhibition at 50 µM in the data set with HSV-1 [2] (Human alphaherpesvirus 1, Vero, 50 μM, ± standard error, read-out: Percent Inhibition of HSV-1) amounted to 80%. In addition, the inhibition at 100 µM with HSV-1 [2] (Human alphaherpesvirus 1, Vero, 100 μM, ± standard error, read-out: Percent Inhibition of HSV-1) turned out to be 90.3 ± 9.9%. Also, the IC50 with HSV-1 [2] (Human alphaherpesvirus 1, Vero, two-fold dilutions, linear regression, read-out: IC50 against HSV-1) is approximately 35 µM; in the data set on Vero cells (Chlorocebus sabaeus, Vero, read-out: IC50 against the host Vero cells (toxicity)), approximately 400 µM. Moreover, the “Percent Cell Death” value is reported as “(13.0 ± 3.1) %” in the data set on Vero cells (50 μM), “(14.3 ± 4.5) %” with Vero cells (100 μM), “(22.3 ± 1.8) %” in the data set on Vero cells (125 μM) and “(28.7 ± 1.4) ^1) %” with Vero cells (250 μM). The “effect on normal WI 38 cells” value in the data set on normal WI 38 cells is “no effect”. The “Percent Reduction of plaques compared to the control” value with HSV-1 [4] came to 97.3%. The entries for the “Number of Plaques” value in the data set with HSV-1 [4] and with HSV-1 [4] (listed as Rg3) were 1.5 ± 0.3 and 1.5±0.3, respectively.
